The values that follow come from patent US10577368B2 (The United States of America, as represented by the …, priority 2013, dated 2020).

One may read the inhibition as the drop in the measured response relative to a control, in per cent. For orientation: Ki means a dissociation constant, usually derived from enzyme kinetics or from competition with a known ligand.

In one assay the target is hA1AR (Homo sapiens (Human), UniProt P30542). Briefly: Radioligand binding at hA1AR, CHO cell membranes, [3H]R-PIA. The conditions noted are these: for inhibition at 10 µM: read-out: hA1AR % inhibition; for hA1AR % inhibition: inhibition of binding at 10 μM.
Another assay deals with hA2AAR (Homo sapiens (Human), UniProt P29274). Briefly: Radioligand binding at hA2AAR, HEK293 cell membranes, [3H]CGS21680. Particulars: for inhibition at 10 µM: read-out: hA2AAR % inhibition; for hA2AAR % inhibition: inhibition of binding at 10 μM.
In another assay the target is mA3AR (Mus musculus (Mouse), UniProt Q61618). The experiment in a line: Competition binding at mA3AR, HEK293 cell membranes.
In assay [1] the test system is chronic constriction injury model of neuropathic pain. Briefly: CCI model of neuropathic pain, reversal of mechano-allodynia. The assay is classed as in vivo, mice. The conditions noted are these: for Max. effect Emax (% ± SEM) / Time of peak protection / Effect at 3 h (% ± SEM): 3 μmol/kg p.o., mice; for Max. effect Emax (% ± SEM) / Time of peak protection: ipsilateral hind paw; for Efficacy in reversing NP in vivo (of full reversal at peak effect): CCI model.

Another assay concerns the target hA3AR (Homo sapiens (Human), UniProt P0DMS8). Briefly: Radioligand binding at hA3AR, CHO cell membranes, [125I]I-AB-MECA.
In another assay the target is human DAT (Homo sapiens (Human), UniProt Q01959). Briefly: Radioligand ([3H]WIN35428) binding at the dopamine transporter. The conditions noted are these: 10 μM.

Molecules are shown by their SMILES.

hA2AAR, sequence (P29274 whole entry): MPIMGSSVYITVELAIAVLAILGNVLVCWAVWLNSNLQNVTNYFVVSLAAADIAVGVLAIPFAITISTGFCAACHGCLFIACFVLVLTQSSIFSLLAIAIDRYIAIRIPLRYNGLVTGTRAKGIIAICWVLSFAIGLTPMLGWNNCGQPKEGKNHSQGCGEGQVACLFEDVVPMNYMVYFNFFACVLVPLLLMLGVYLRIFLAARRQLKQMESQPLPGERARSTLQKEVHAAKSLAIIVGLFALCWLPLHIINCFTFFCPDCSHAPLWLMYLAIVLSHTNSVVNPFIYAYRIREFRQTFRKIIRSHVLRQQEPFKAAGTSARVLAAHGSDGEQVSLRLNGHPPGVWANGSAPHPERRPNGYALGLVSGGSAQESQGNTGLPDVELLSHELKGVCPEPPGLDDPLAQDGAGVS
hA1AR, sequence (P30542 whole entry): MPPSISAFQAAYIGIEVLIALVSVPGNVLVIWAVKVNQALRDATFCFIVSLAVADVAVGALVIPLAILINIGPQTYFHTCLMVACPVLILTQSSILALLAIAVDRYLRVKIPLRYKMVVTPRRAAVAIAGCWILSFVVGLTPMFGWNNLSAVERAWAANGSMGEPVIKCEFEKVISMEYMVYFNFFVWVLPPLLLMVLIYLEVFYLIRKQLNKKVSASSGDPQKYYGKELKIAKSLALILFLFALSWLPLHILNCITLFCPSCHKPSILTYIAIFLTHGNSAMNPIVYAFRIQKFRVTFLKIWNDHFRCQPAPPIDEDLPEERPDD
hA3AR, sequence (P0DMS8 whole entry): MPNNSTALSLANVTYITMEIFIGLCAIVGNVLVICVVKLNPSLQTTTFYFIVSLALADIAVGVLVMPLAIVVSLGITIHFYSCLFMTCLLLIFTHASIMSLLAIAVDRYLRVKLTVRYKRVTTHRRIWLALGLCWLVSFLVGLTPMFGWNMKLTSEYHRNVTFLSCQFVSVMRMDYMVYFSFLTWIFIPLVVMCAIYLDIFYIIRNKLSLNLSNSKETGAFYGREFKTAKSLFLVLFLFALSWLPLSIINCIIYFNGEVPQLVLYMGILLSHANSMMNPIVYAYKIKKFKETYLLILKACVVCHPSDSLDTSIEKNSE
mA3AR, sequence (Q61618 whole entry): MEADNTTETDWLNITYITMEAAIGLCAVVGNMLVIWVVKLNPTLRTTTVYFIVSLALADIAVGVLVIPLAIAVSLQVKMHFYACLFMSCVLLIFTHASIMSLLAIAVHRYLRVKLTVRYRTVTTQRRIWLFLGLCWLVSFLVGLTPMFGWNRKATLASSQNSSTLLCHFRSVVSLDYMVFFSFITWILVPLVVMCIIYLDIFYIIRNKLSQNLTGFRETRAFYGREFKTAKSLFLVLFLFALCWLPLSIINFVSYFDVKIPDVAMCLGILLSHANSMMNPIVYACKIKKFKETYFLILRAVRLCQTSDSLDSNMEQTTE
human DAT, sequence (Q01959 whole entry): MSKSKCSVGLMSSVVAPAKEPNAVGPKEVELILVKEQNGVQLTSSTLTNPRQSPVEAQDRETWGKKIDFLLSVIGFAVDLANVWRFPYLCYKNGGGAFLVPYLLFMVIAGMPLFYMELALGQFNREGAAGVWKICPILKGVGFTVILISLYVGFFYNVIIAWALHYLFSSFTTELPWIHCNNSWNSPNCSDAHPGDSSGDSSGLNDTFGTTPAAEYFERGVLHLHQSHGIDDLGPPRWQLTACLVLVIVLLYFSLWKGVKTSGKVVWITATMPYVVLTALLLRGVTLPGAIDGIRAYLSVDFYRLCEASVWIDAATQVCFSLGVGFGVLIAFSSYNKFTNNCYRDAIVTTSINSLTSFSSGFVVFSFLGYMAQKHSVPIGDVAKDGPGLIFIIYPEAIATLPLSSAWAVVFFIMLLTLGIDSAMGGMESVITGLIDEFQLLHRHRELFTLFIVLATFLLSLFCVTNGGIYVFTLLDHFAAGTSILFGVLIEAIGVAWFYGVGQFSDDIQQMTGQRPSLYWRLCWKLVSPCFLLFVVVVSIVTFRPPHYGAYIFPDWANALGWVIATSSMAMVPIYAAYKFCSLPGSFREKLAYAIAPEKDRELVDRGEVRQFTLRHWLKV

As to `CNC(=O)[C@@]12C[C@@H]1[C@@H](n1cnc3c(NC)nc(C#Cc4ncccn4)nc31)[C@H](O)[C@@H]2O` [Compound 6, (1S,2R,3S,4R,5S)-2,3-Dihydroxy-N-methyl-4-(6-(methylamino)-2-(pyrimidin-2-ylethynyl)-9H-purin-9-yl)bicyclo[3.1.0]hexane-1-carboxamide], the inhibition at 10 µM at hA1AR is 25 ± 10%. Moreover, the inhibition at 10 µM on hA2AAR was found to be 27 ± 5%. The same molecule had an inhibition constant Ki on mA3AR of 65 ± 6 nM. In assay [1], the “Max. effect Emax (% ± SEM)” value was found to be 92.3 ± 7.7%, the “Time of peak protection” value is 0.5 to 1 h and the “Efficacy in reversing NP in vivo (of full reversal at peak effect)” value (“Efficacy in reversing NP in vivo” for short) was “less than full efficacy”.
Consider `CNC(=O)[C@@]12C[C@@H]1[C@@H](n1cnc3c(NC)nc(C#Cc4cc[nH]n4)nc31)[C@H](O)[C@@H]2O` [Compound 9, (1S,2R,3S,4R,5S)-4-(2-((1H-Pyrazol-3-yl)ethynyl)-6-(methylamino)-9H-purin-9-yl)-2,3-dihydroxy-N-methylbicyclo[3.1.0]hexane-1-carboxamide], for which the inhibition at 10 µM at hA1AR came to 30%; at hA2AAR, 19 ± 2%. This molecule gave a Ki at mA3AR of 50 ± 2 nM. In addition, in assay [1], the “Time of peak protection” value lay in the range of 0.5 to 1 h.
`CNC(=O)[C@@]12C[C@@H]1[C@@H](n1cnc3c(NC)nc(C#Cc4ccc(OC)cc4)nc31)[C@H](O)[C@@H]2O` [Compound 11, (1S,2R,3S,4R,5S)-2,3-Dihydroxy-4-(2-((4-methoxyphenyl)ethynyl)-6-(methylamino)-9H-purin-9-yl)-N-methylbicyclo[3.1.0]hexane-1-carboxamide]: the inhibition at 10 µM on hA1AR is 10%; on hA2AAR it was 24 ± 8%. The Ki at hA3AR came out at 0.63 ± 0.07 nM. Also, in assay [1], the “Time of peak protection” value fell in the range of 0.5 to 1 h.
For the molecule `CNC(=O)[C@@]12C[C@@H]1[C@@H](n1cnc3c(NC)nc(C#Cc4cccc(OC)c4)nc31)[C@H](O)[C@@H]2O` [Compound 12, (1S,2R,3S,4R,5S)-2,3-Dihydroxy-4-(2-((3-methoxyphenyl)ethynyl)-6-(methylamino)-9H-purin-9-yl)-N-methylbicyclo[3.1.0]hexane-1-carboxamide], the inhibition at 10 µM stood at 8 ± 4% on hA1AR and 26 ± 5% at hA2AAR. Moreover, the Ki on hA3AR came out at 0.91 ± 0.07 nM. Further, in assay [1], the “Time of peak protection” value is 0.5 to 2 h.
For `CNC(=O)[C@@]12C[C@@H]1[C@@H](n1cnc3c(NC)nc(C#Cc4ccccc4OC)nc31)[C@H](O)[C@@H]2O` [Compound 13, (1S,2R,3S,4R,5S)-2,3-Dihydroxy-4-(2-((2-methoxyphenyl)ethynyl)-6-(methylamino)-9H-purin-9-yl)-N-methylbicyclo[3.1.0]hexane-1-carboxamide], the inhibition at 10 µM at hA1AR was 12%. In addition, the inhibition at 10 µM at hA2AAR amounted to 20 ± 7%. Moreover, the Ki at hA3AR is 0.77 ± 0.17 nM. In assay [1], the “Max. effect Emax (% ± SEM)” value stood at 64.3 ± 10.7%, the “Time of peak protection” value is 1 h and the “Efficacy in reversing NP in vivo” value is given as around 70%.
`CNC(=O)[C@@]12C[C@@H]1[C@@H](n1cnc3c(NC)nc(C#Cc4ccsc4)nc31)[C@H](O)[C@@H]2O` [Compound 16, (1 S,2R,3S,4R,5S)-2,3-Dihydroxy-N-methyl-4-(6-(methylamino)-2-(thiophen-3-ylethynyl)-9H-purin-9-yl)bicyclo[3.1.0]hexane-1-carboxamide]: the results for the inhibition at 10 µM at hA1AR and on hA2AAR were 11% and 3 ± 2%, respectively. In addition, on hA3AR, the Ki came out at 0.52 ± 0.04 nM. Also, in assay [1], the “Time of peak protection” value was 0.5 to 1 h. The “Efficacy in reversing NP in vivo” value in assay [1] is on record as “diminished”.
For `CCc1ccc(C#Cc2nc(NC)c3ncn([C@H]4[C@H](O)[C@H](O)[C@]5(C(=O)NC)C[C@H]45)c3n2)o1` [Compound 34, (1S,2R,3S,4R,5S)-4-(2-((5-Ethylfuran-2-yl)ethynyl)-6-(methylamino)-9H-purin-9-yl)-2,3-dihydroxy-N-methylbicyclo[3.1.0]hexane-1-carboxamide], the values for the inhibition at 10 µM on hA1AR and on hA2AAR were 18% and 4 ± 4%, respectively. The same molecule displayed a Ki on hA3AR of 1.5 ± 0.28 nM. Also, the “Time of peak protection” value in assay [1] is reported as 1 h.
Take `CNC(=O)[C@]12CC1[C@@H](n1cnc3c(NC)nc(-n4cc(-c5ccccn5)nn4)nc31)[C@H](O)C2O` (stereo partly drawn) [Compound 103]: on hA1AR, the hA1AR % inhibition was 29 ± 7%. The molecule further came in with a hA2AAR % inhibition on hA2AAR of 26 ± 2%. Affinity on hA3AR was put at a Ki of 1.84 ± 0.38 nM. For the same molecule, in assay [1], the “Effect at 3 h (% ± SEM)” value was found to be 22 ± 7%, the “Max. effect Emax (% ± SEM)” value is reported as 55 ± 6% and the “Time of peak protection” value stood at 1 h.
Take `CNC(=O)[C@]12CC1[C@@H](n1cnc3c(NC)nc(-n4cc(-c5ncccn5)nn4)nc31)[C@H](O)C2O` (stereo partly drawn) [Compound 104]: the hA1AR % inhibition at hA1AR was found to be 14 ± 7%. At hA2AAR, this molecule displayed a hA2AAR % inhibition of 27 ± 3%. At hA3AR, this molecule returned a Ki of 3.48 ± 0.97 nM. For the same molecule, in assay [1], the “Effect at 3 h (% ± SEM)” value was 39 ± 10%, the “Max. effect Emax (% ± SEM)” value is reported as 89 ± 11% and the “Time of peak protection” value turned out to be 1 h.
As for `CNC(=O)[C@]12CC1[C@@H](n1cnc3c(NC)nc(-n4cc(-c5cnccn5)nn4)nc31)[C@H](O)C2O` (stereo partly drawn) [Compound 105], at hA1AR, the hA1AR % inhibition worked out at 25 ± 10%. Also, at hA2AAR, the hA2AAR % inhibition came to 8 ± 3%. Further, the Ki at hA3AR turned out to be 2.21 ± 0.34 nM. In addition, in assay [1], the “Effect at 3 h (% ± SEM)” value amounted to 22 ± 7%, the “Max. effect Emax (% ± SEM)” value came out at 78 ± 0% and the “Time of peak protection” value was 1 h.
In the case of `CNC(=O)[C@]12CC1[C@@H](n1cnc3c(NC)nc(-n4cc(-c5cnn(C)c5)nn4)nc31)[C@H](O)C2O` (stereo partly drawn) [Compound 106], on hA1AR, the hA1AR % inhibition is on record as 2 ± 2%. The molecule further came in with a hA2AAR % inhibition on hA2AAR of 1 ± 1%. On hA3AR, this molecule yielded a Ki of 2.16 ± 0.32 nM. Moreover, in assay [1], the “Effect at 3 h (% ± SEM)” value is listed as 22 ± 7%, the “Max. effect Emax (% ± SEM)” value turned out to be 85 ± 5% and the “Time of peak protection” value is on record as 1 h.
On to `CNC(=O)[C@]12CC1[C@@H](n1cnc3c(NC)nc(-n4cc(-c5ccco5)nn4)nc31)[C@H](O)C2O` (stereo partly drawn) [Compound 107], for which the hA2AAR % inhibition on hA2AAR is on record as 51 ± 1%. In addition, at hA3AR, the affinity corresponds to a Ki of 0.96 ± 0.09 nM. Besides, in assay [1], the “Effect at 3 h (% ± SEM)” value is 21 ± 7%, the “Max. effect Emax (% ± SEM)” value is on record as 65 ± 8% and the “Time of peak protection” value was found to be 1 h.
Turning to `CNC(=O)[C@]12CC1[C@@H](n1cnc3c(NC)nc(-n4cc(-c5cc6ccccc6o5)nn4)nc31)[C@H](O)C2O` (stereo partly drawn) [Compound 108], the hA1AR % inhibition at hA1AR is reported as 12 ± 7%. At hA2AAR, this molecule registered a hA2AAR % inhibition of 40 ± 6%. This molecule showed a Ki at hA3AR of 1.25 ± 0.27 nM. In assay [1], the “Effect at 3 h (% ± SEM)” value is 8 ± 8%, the “Max. effect Emax (% ± SEM)” value worked out at 55 ± 6% and the “Time of peak protection” value amounted to 1 h.
`CNC(=O)[C@]12CC1[C@@H](n1cnc3c(NC)nc(-n4cc(-c5ccc(Br)s5)nn4)nc31)[C@H](O)C2O` (stereo partly drawn) [Compound 111] displayed a hA2AAR % inhibition on hA2AAR of 7 ± 6%. The molecule further came in with a Ki at hA3AR of 0.58 ± 0.17 nM. Moreover, in assay [1], the “Effect at 3 h (% ± SEM)” value came out at 14 ± 2%, the “Max. effect Emax (% ± SEM)” value was 69 ± 9% and the “Time of peak protection” value came out at 1 h.
In turn, `CNC(=O)[C@]12CC1[C@@H](n1cnc3c(NCCc4ccccc4)nc(N=[N+]=[N-])nc31)[C@H](O)C2O` (stereo partly drawn) [Compound 117] registered a hA1AR % inhibition on hA1AR of 93%. The hA2AAR % inhibition on hA2AAR is 71%. This molecule showed a Ki at hA3AR of 0.85 ± 0.1 nM.
For `CNC(=O)[C@]12CC1[C@@H](n1cnc3c(NCCc4ccccc4)nc(I)nc31)[C@H](O)C2O` (stereo partly drawn) [Compound 119], the hA1AR % inhibition at hA1AR is given as 68%. For the same molecule, affinity at hA3AR was put at a Ki of 0.91 ± 0.14 nM.
For `CNC(=O)[C@]12CC1[C@@H](n1cnc3c(NCCc4ccccc4)nc(-n4cc(-c5ccc(Cl)s5)nn4)nc31)[C@H](O)C2O` (stereo partly drawn) [Compound 121], at hA1AR, the hA1AR % inhibition is on record as 58%. The Ki on hA3AR was determined as 6.66 ± 2.07 nM. In assay [1], the “Effect at 3 h (% ± SEM)” value was 80%, the “Max. effect Emax (% ± SEM)” value came to 90% and the “Time of peak protection” value lay in the range of 0.5 to 3 h.
Turning to `CCNc1nc(N=[N+]=[N-])nc2c1ncn2[C@@H]1C2C[C@]2(C(=O)NC)C(O)[C@H]1O` (stereo partly drawn) [Compound 123], the hA2AAR % inhibition at hA2AAR is on record as 11 ± 6%. Also, the affinity at hA3AR corresponds to a Ki of 0.6 ± 0.08 nM.
`CNC(=O)[C@]12CC1[C@@H](n1cnc3c(NCc4cccc(Cl)c4)nc(N=[N+]=[N-])nc31)[C@H](O)C2O` (stereo partly drawn) [Compound 124]: the Ki at hA2AAR worked out at 2770 nM; on hA3AR it was 1.08 ± 0.75 nM.
Turning to `CCNc1nc(C#Cc2ccc(Cl)s2)nc2c1ncn2[C@H]1C(O)[C@@H](O)[C@]2(C(=O)NC)C[C@H]12` (stereo partly drawn) [Compound 126], the “Increase of the level of radioligand ([3H]WIN35428) binding at the human DAT” value at human DAT is given as 329%.
In the case of `CNC(=O)[C@@]12C[C@@H]1[C@@H](n1cnc3c(NC)nc(C#Cc4ccncc4)nc31)[C@H](O)[C@@H]2O` [Compound 300, (1S,2R,3S,4R,5S)-2,3-Dihydroxy-N-methyl-4-(6-(methylamino)-2-(pyridin-4-ylethynyl)-9H-purin-9-yl)bicyclo[3.1.0] hexane-1-carboxamide], the inhibition at 10 µM on hA1AR turned out to be 15%. Also, the inhibition at 10 µM on hA2AAR worked out at 2 ± 2%. The Ki on hA3AR came to 2.07 ± 0.16 nM. Besides, in assay [1], the “Time of peak protection” value amounted to 1 h and the “Efficacy in reversing NP in vivo” value is recorded as “low efficacy”.
On hA1AR, `CNC(=O)[C@]12CC1[C@@H](n1cnc3cnc(C#Cc4ccccc4)nc31)[C@H](O)C2O` (stereo partly drawn) [Compound 402] gave a hA1AR % inhibition of 28 ± 4%. The Ki at hA2AAR is 1200 nM; on hA3AR it was 1.51 ± 0.41 nM.
